# According to patent US6103709A (priority 1998, dated 2000):
# “Also recorded” adds a separate entry of the source.
# What was measured:
# [1] = system: MAP-kinase p42^mapk in NB4 cells; assay: MAP-kinase activation (p42mapk phosphorylation) in NB4 cells; assay type: cell-based, human
# Protocol: In order to determine whether MAP-kinase phosphorylation is specific and is altered by 1α,25(OH)2 D3, the time-dependent effects of 1α,25(OH)2 D3 on p42^mapk phosphorylation was examined using human acute promyelocytic leukemia cells (NB4). In this study, the NB4 cells, cultured in 10% charcoal-stripped fetal calf serum (FCS) medium, were treated with 1α,25(OH)2 D3 at 10^-8 M for various time periods. Cells were then extracted and the phosphorylated MAP-kinase was immunoprecipitated with anti-phosphotyrosine antibody and further analyzed by Western blot using the antibodies against p42^mapk.
# The lysate was further processed for anti-phosphotyrosine immunoprecipitation. […] After transferring the proteins to the PVDF membrane, the membrane was further incubated with primary anti-p42^mapk antibodies that were (+) or were not (-) pre-exposed to MAP-kinase peptide.
# This example describes assays used for measurement of MAP-kinase activity in NB4 cells.
# Cell culture of NB4 cells
# The cell line is characterized by a translocation involving chromosomes 15 and 17, which is typical of the classical form of APL-M3 in the French-American-British [FAB] classification. NB4 cells were cultured in DMEM/F12 medium with 10% FCS at 5% CO2 balanced air and were routinely passaged as suspension cultures and only passages 8 to 20 were used for each assay.
# Immunoprecipitation of Tyrosine-Phosphorylated Proteins
# NB4 cells were cultured in 60-mm diameter dishes and treated with 1,25(OH)2 D3 or analogs in 4 ml of DMEM/F12 containing 10% charcoal-stripped FCS.
# Insoluble material was removed in a microcentrifuge at 14,000 rpm for 10 min. Protein concentration was determined with a protein assay kit (Bio-Rad Lab, Hercules, Calif.). For immunoprecipitation, the supernatant was incubated with bead-conjugated monoclonal anti-phosphotyrosine antibody overnight at 4° C. The immunoprecipitates containing the tyrosine-phosphorylated proteins were washed four times with freshly-prepared RIPA buffer and further eluted with 2× Laemmli gel buffer.
# At this point, the samples were either stored at -20° C. for further use or processed via Western blots. Equal loading of MAP-kinase protein was determined by running the Western blots using polyclonal anti-p42^mapk antibody. For this purpose, samples were aliquoted from each cell extract before immunoprecipitation.
# SDS Gel Electrophoresis and Western blot
# The membrane was further immunoblotted using a rabbit anti-p42^mapk polyclonal antibody overnight at 4° C. followed by incubation with secondary horseradish peroxidase-conjugated mouse anti-rabbit antibody for 1 hr at 25° C. The phosphorylated MAP-kinase bands were then visualized by enhanced chemiluminescence (ECL). A Ultrascan LX Laser Densitometer (LKB, Bromma, Sweden) scanned the density of the immuno-phosphoprotein bands. The results were normalized by protein loading and further plotted as percent of control of the band density.
# [2] = system: chloride channels in ROS 17/2.8 cells; settings: 1 nM HL in the bath; 1α,25(OH)2 D3 5 nM or less
# Protocol: In each case, at least a 3-min period was allowed after the addition of the analog to the bath for currents to reach a stable amplitude value. […] Anion currents were isolated from inward Ba^2+ currents after blockade of Ca^2+ channels with 100 μM Cd^2+.
# [3] = system: VDRmem; assay: Binding to membrane receptor VDRmem; settings: relative to 1α,25(OH)2 D3
SMILES,"antagonism of 1α,25(OH)2 D3-mediated MAP-kinase activation ([1]; HL 10^-9 M with 1α,25(OH)2 D3 at 1, 10 or 100×10^-10 M, 5 min)",stimulation of MAP-kinase by analog alone ([1]; HL alone),"antagonism of 1α,25(OH)2 D3-stimulated chloride channel opening [2]","activation of MAP-kinase versus 1α,25(OH)2 D3 ([1]; 1 minute)","activation of MAP-kinase versus 1α,25(OH)2 D3 ([1]; 5 minute)",binding to VDRmem receptor [3] [%]
C=C1/C(=C\C=C2/CCC[C@]3(C)[C@@H]([C@H](C)CCCC(C)(C)O)CC[C@@H]23)C[C@@H](O)C[C@H]1O [HL],"antagonist of activation of MAP-kinases; also recorded: capable of antagonizing rapid responses; also recorded: able to block 1α,25(OH)2 D3",no stimulation of MAP-kinase,"capable of antagonizing rapid responses; also recorded: inhibit the ability of 1α,25(OH)2 D3 to increase outward currents",,,
C[C@H](CCCC(C)(C)O)[C@H]1CC[C@H]2C3=CC=C4C[C@@H](O)C[C@H](O)[C@@]4(C)[C@@H]3CC[C@]12C [JN],,,,"more than 1α,25(OH)2 D3",only slightly less active,105
